Assay results as given in ChEMBL document CHEMBL4613204, “Lysine demethylase 5B (KDM5B): A potential anti-cancer drug target” (Eur J Med Chem, 2019).

Key:
[1] = biological target: T1, Lysine-specific demethylase 5B (Homo sapiens, UniProt Q9UGL1); assay: Inhibition of KDM5B (unknown origin)
[2] = biological target: Lysine-specific demethylase 5C (Homo sapiens, UniProt P41229); assay: Inhibition of KDM5C (1 to 789 residues) (unknown origin)
[3] = biological target: T1, Lysine-specific demethylase 5B; assay: Inhibition of KDM5B (1 to 755 residues) (unknown origin)
[4] = tested on: MCF7; assay: Antiproliferative activity against human MCF7 cells assessed as growth inhibition; assay type: functional
[5] = tested on: MDA-MB-231; assay: Antiproliferative activity against human MDA-MB-231 cells assessed as growth inhibition; assay type: functional
[6] = Selectivity ratio of GI50 for human […] cells; assay type: functional

T1 sequence (Q9UGL1 whole entry, the tested form may be a part): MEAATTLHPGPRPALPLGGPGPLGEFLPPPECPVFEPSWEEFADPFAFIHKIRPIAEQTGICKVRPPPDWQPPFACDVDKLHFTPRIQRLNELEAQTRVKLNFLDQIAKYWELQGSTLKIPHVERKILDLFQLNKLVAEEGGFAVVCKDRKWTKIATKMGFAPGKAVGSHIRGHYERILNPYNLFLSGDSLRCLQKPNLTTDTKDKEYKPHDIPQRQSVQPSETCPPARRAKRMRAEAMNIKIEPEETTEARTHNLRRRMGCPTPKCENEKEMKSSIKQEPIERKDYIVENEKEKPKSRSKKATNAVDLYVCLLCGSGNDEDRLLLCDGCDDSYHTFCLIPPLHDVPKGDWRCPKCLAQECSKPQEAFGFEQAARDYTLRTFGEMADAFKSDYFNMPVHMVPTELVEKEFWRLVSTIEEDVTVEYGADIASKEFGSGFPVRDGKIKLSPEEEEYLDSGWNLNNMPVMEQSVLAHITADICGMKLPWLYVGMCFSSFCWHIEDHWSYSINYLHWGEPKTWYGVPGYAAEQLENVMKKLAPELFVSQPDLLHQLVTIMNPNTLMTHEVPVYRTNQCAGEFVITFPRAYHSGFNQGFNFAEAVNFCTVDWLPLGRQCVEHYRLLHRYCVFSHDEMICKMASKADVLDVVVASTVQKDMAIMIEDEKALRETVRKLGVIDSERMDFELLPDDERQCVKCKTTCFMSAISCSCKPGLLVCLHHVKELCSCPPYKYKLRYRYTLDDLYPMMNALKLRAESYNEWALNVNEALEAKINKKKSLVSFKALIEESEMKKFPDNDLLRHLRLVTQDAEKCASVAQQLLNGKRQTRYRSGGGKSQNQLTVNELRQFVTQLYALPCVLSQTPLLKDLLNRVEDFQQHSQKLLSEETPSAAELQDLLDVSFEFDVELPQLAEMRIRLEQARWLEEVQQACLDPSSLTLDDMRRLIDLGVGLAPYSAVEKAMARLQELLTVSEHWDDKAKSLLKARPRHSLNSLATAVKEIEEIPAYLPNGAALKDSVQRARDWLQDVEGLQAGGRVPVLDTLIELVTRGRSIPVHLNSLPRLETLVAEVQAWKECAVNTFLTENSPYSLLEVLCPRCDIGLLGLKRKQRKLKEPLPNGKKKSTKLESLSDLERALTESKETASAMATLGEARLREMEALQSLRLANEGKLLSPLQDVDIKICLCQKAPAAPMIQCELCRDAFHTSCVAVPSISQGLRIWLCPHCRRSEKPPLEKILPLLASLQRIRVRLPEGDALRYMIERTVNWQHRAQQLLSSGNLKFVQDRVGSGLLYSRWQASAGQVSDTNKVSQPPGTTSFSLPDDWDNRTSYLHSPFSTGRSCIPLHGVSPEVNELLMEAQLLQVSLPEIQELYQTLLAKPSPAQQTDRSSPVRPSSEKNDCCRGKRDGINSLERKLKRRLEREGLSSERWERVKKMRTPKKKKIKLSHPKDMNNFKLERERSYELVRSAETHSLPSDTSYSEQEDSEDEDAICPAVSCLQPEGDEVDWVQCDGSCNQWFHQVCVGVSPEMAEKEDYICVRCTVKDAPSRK
Chain of Lysine-specific demethylase 5C (P41229 whole entry, the tested form may be a part): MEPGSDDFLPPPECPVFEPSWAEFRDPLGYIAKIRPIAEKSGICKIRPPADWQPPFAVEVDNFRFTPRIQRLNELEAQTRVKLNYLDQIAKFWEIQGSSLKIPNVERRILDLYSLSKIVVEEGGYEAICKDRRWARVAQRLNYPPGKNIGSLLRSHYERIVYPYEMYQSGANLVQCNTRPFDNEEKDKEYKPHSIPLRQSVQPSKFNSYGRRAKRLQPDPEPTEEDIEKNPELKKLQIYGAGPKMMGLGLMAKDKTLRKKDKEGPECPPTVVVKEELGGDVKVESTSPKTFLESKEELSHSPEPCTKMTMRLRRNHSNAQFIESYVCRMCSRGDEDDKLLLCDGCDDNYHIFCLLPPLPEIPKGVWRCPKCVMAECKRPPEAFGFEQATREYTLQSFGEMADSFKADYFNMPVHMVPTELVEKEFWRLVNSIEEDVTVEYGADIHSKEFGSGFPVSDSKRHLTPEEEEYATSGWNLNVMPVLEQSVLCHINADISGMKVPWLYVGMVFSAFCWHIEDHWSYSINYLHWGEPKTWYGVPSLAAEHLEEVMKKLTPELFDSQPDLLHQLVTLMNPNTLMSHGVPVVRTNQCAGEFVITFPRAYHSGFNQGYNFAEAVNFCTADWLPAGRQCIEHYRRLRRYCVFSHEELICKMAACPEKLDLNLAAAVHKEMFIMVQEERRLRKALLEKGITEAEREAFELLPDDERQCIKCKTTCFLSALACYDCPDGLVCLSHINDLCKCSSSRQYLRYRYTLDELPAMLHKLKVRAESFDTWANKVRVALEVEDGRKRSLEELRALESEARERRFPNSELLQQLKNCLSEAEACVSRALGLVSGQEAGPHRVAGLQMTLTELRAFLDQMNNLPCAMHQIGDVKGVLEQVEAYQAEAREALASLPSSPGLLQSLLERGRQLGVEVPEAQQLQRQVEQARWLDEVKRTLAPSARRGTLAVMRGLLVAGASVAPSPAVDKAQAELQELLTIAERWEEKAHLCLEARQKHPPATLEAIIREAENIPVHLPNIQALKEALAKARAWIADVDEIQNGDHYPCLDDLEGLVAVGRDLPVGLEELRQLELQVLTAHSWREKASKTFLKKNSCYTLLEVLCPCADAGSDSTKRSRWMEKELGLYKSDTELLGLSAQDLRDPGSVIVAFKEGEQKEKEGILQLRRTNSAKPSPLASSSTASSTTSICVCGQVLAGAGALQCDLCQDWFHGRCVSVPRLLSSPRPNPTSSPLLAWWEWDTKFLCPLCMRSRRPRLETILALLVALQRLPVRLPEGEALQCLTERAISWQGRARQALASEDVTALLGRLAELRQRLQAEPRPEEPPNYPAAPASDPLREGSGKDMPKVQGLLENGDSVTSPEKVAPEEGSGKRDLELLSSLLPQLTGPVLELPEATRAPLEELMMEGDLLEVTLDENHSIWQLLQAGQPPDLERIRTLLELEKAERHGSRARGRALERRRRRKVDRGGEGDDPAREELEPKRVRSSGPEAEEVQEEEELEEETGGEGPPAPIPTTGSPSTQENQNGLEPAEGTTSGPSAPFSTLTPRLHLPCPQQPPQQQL

## Cc1ccc(-n2sc3ccccc3c2=O)cc1
[1]
  IC50: 3000 nM

## Clc1ccc(N/N=C(\c2ccccc2)c2ccccn2)nc1
[2]
  IC50: 42000 nM
[3]
  IC50: 5000 nM
[4]
  GI50: 22 nM
[5]
  GI50: 300 nM
[6]
  Selectivity ratio: 14

## CC(C)c1c(-c2ccccc2)[nH]c2c(C#N)cnn2c1=O
[1]
  IC50: 10 nM

## CCOC(=O)c1c(O)c2ccncc2[nH]c1=O
[1]
  IC50: 20 nM

## O=C(O)CCC(=O)C(=O)O [ALPHA-KETOGLUTARIC ACID]
[1]
  IC50: 800000 nM
